Assay results published in US20220257559A1, “INTESTINAL MICROBIOME-IMPROVING COMPOSITION INCLUDING ELLAGIC ACID AS ACTIVE INGREDIENT” (Andong National University Industry-Academic Cooperation …, priority 2021, published 2022).

Key:
Format in all cases: in vivo
[1] = system: CYP2E1, iNOS and 3-NT proteins in the liver; experiment: hepatic CYP2E1 expression and activity and oxidative stress marker proteins in alcohol-exposed mice
Description: CYP2E1 Activity Analysis Liver solutions were each analyzed with an ELISA kit for CYP2E1, manufactured by Claud-clone corporation (Houston, Tex.), according to the manufacturer's instructions.
Portions of liver tissue and small intestine from each mouse were homogenized with RIPA buffer. Equally pooled protein in an amount of 50 ug collected from different mouse samples within the same group were separated by SDS/PAGE and transferred to nitrocellulose membranes. These membranes were incubated with polyclonal antibodies against CYP2E1 (1:5,000 dilution; Abcam), p-JNK (1:1,000 dilution; Cell Signaling), 3-NT (1:5,000 dilution; Abcam), iNOS (1:5,000 dilution; Abcam), cleaved caspase-3 (1:1,000 dilution; Cell Signaling), ZO-1 (1:5,000 dilution; Abcam), and claudin-1 (1:1,000 dilution; Thermo Fisher). Each mouse monoclonal antibody against JNK (1:1,000 dilution; Cell Signaling), Bax (1:1,000 dilution; Santa Cruz Biotechnology), or +-actin (1:10,000 dilution; Santa Cruz Biotechnology) was used to detect specific antigenic targets. After washing the nitrocellulose membranes three times with PBS at 10-minute intervals, horseradish peroxidase (HRP)-conjugated anti-rabbit or anti-mouse IgG (manufactured by Santa Cruz Biotechnology) was diluted at a ratio of 1:5,000 and used as a secondary antibody. Relative protein images were determined using the HRP-binding secondary antibody and an ECL substrate (Thermo Fishers). The intensity of immune response bands was quantified by density using ImageJ software (National Institutes of Health).
To evaluate the effect of ellagic acid (EA) on hepatic oxidative stress, the expression and activity levels of CYP2E1 proteins were measured.

[2] = system: CYP2E1, iNOS, and 3-NT proteins in the intestine; experiment: intestinal oxidative stress marker proteins (immunoblot) in alcohol-exposed mice; conditions: EA-pretreated group vs alcohol-exposed group; FIG. 9
Description: Portions of liver tissue and small intestine from each mouse were homogenized with RIPA buffer. Equally pooled protein in an amount of 50 ug collected from different mouse samples within the same group were separated by SDS/PAGE and transferred to nitrocellulose membranes. These membranes were incubated with polyclonal antibodies against CYP2E1 (1:5,000 dilution; Abcam), p-JNK (1:1,000 dilution; Cell Signaling), 3-NT (1:5,000 dilution; Abcam), iNOS (1:5,000 dilution; Abcam), cleaved caspase-3 (1:1,000 dilution; Cell Signaling), ZO-1 (1:5,000 dilution; Abcam), and claudin-1 (1:1,000 dilution; Thermo Fisher). Each mouse monoclonal antibody against JNK (1:1,000 dilution; Cell Signaling), Bax (1:1,000 dilution; Santa Cruz Biotechnology), or +-actin (1:10,000 dilution; Santa Cruz Biotechnology) was used to detect specific antigenic targets. […] Relative protein images were determined using the HRP-binding secondary antibody and an ECL substrate (Thermo Fishers). The intensity of immune response bands was quantified by density using ImageJ software (National Institutes of Health).
To evaluate the effect of ellagic acid on intestinal oxidative stress, the expression levels of CYP2E1, iNOS, and 3-NT proteins were measured.

[3] = system: p-JNK, Bax, cleaved caspase-3 in the liver; experiment: liver apoptosis markers (Western blot, cleaved caspase-3 staining, TUNEL) in alcohol-exposed mice
Description: (§1) All animal testing procedures were performed in accordance with Andong National University's small animal testing guidelines, and were approved by the Andong National University Animal Care and Use Committee. All mice were housed where food and water were provided autonomously, and lighting was controlled (12-hour light/dark cycle). The ellagic acid was orally administered to 6-week-old female C57BL/6J mice at a daily dose of 60 mg/Kg as a physiologically and clinically relevant dose, and 200 mg/Kg silymarin was administered as a positive control. Water was orally administered to control mice. After the administration of ellagic acid for 14 days, alcohol or dextrose (control) was orally administered to some of the mice at a dose of 5 g/Kg, three times at 12-hour intervals. The mice were sacrificied 1 hour after the last administration.
Portions of liver tissue and small intestine from each mouse were homogenized with RIPA buffer. Equally pooled protein in an amount of 50 ug collected from different mouse samples within the same group were separated by SDS/PAGE and transferred to nitrocellulose membranes. These membranes were incubated with polyclonal antibodies against CYP2E1 (1:5,000 dilution; Abcam), p-JNK (1:1,000 dilution; Cell Signaling), 3-NT (1:5,000 dilution; Abcam), iNOS (1:5,000 dilution; Abcam), cleaved caspase-3 (1:1,000 dilution; Cell Signaling), ZO-1 (1:5,000 dilution; Abcam), and claudin-1 (1:1,000 dilution; Thermo Fisher). Each mouse monoclonal antibody against JNK (1:1,000 dilution; Cell Signaling), Bax (1:1,000 dilution; Santa Cruz Biotechnology), or […] (1:10,000 dilution; Santa Cruz Biotechnology) was used to detect specific antigenic targets. […] Relative protein images were determined using the HRP-binding secondary antibody and an ECL substrate (Thermo Fishers). The intensity of immune response bands was quantified by density using ImageJ software (National Institutes of Health). […]

[4] = blood alcohol concentration (BAC) in alcohol-exposed mice; conditions: EA-pretreated group; FIG. 16
Description: as §1
(§2) Levels of plasma ROS were visualized with 2′,7′-dichlorofluorescein diacetate (DCFH-DA) purchased from Thermo Fisher Scientific. After the DCFH-DA was incubated at 37° C. for 20 minutes, DCFH-DA fluorescence was measured. Plasma alcohol levels were measured using a commercially available kit manufactured by BioVision.
(§3) To evaluate the effect of ellagic acid (EA) on hepatic fat accumulation, and plasma ALT and hepatic triglyceride levels, liver tissues taken from mouse models were histologically analyzed through H/E staining and Oil Red O staining.

[5] = system: TNF-α; experiment: intestinal TNF-α level (ELISA) in alcohol-exposed mice; conditions: EA pretreatment vs alcohol-exposed group; EA 60 mg/Kg daily oral 14 days; FIG. 8
Description: as §1
Liver solutions were analyzed using an ELISA kit for TNF-α, manufactured by Abcam (Cambridge, United Kingdom), according to the manufacturer's instructions. To use equal amounts of protein for the ELISA, protein concentration was measured with BCA reagent manufactured by BioRad (Hercules, Calif.). […]
(§4) Intestinal microbial products can be stimulated by intestinal leak and endotoxins. Plasma endotoxin and intestinal TNF-α levels were measured to determine whether ellagic acid (EA)-mediated prophylaxis occurred at altered levels of microbial composition.

[6] = system: ZO-1 and β-catenin; experiment: intestinal tight junction (TJ) and anchoring junction (AJ) protein expression in alcohol-exposed mice; conditions: EA-pretreated group within the alcohol-exposed group; FIG. 10
Description: as §1, with “After the administration of ellagic acid for 14 days, alcohol or dextrose (control) was orally administered to some of the mice at a dose of 5 g/Kg, three times at 12-hour intervals. The mice were sacrificied 1 hour after the last administration.” left out
Portions of liver tissue and small intestine from each mouse were homogenized with RIPA buffer. […] Relative protein images were determined using the HRP-binding secondary antibody and an ECL substrate (Thermo Fishers). The intensity of immune response bands was quantified by density using ImageJ software (National Institutes of Health).
(§5) Changes in the expression of intestinal tight junction (TJ) and anchoring junction (AJ) proteins are observed in mouse models with alcohol-induced intestinal leak. To evaluate whether ellagic acid (EA) prevents alcohol-induced intestinal leakage, the expression levels of intestinal TJ and AJ proteins after the ellagic acid administration were measured.

[7] = system: plasma ALT; experiment: plasma ALT level in alcohol-exposed mice; conditions: EA-pretreated group vs alcohol-exposed group; FIG. 15
Description: as §1
(§6) Portions of the largest liver lobes or small intestines from the mice pretreated with ellagic acid and from the controls were fixed in neutral formalin. […] Plasma ALT levels of each mouse were measured using a standard endpoint colorimetric assay kit (Bio Vision, Milpitas, Calif.).
as §3

[8] = system: plasma ROS; experiment: plasma ROS level (DCFH-DA) in alcohol-exposed mice; conditions: FIG. 18
Description: as §1, §2
CYP2E1 generates reactive oxygen species (ROS) in alcoholic and nonalcoholic liver disease.

[9] = system: fat accumulation in the liver; experiment: liver histology (H/E and Oil Red O staining) in alcohol-exposed mice; conditions: EA-pretreated group vs alcohol-exposed group, FIGS. 12 and 13
Description: as §1, §6, §3

[10] = system: intestinal cells; experiment: apoptosis of intestinal cells in alcohol-exposed mice; conditions: EA pretreatment group, alcohol-induced; FIG. 11
Description: as §1
Small intestine and liver specimens were fixed overnight in 10% buffered formalin and embedded in paraffin. […]
as §5

[11] = system: cecal microbiota; experiment: cecal microbiota 16S sequencing, alcohol exposure and EA pretreatment in mice
Description: All animal testing procedures were performed in accordance with Andong National University's small animal testing guidelines, and were approved by the Andong National University Animal Care and Use Committee. All mice were housed where food and water were provided autonomously, and lighting was controlled (12-hour light/dark cycle). The ellagic acid was orally administered to 6-week-old female C57BL/6J mice at a daily dose of 60 mg/Kg as a physiologically and clinically relevant dose, and 200 mg/Kg silymarin was administered as a positive control. Water was orally administered to control mice. After the administration of ellagic acid for 14 days, alcohol or dextrose (control) was orally administered to some of the mice at a dose of 5 g/Kg, three times at 12-hour intervals. The mice were […] 1 hour after the last administration. Fecal samples were aseptically collected from the cecum of each mouse and frozen at -80° C. DNA was extracted using the Mag-Bind Universal Pathogen DNA Kit (Chunlab, Seoul, South Korea) according to the manufacturer's instructions. DNA sequencing of bacterial 16S rRNA in each fecal sample was performed at Chunlab (https://www.chunlab.com/). Intestinal microbiome and bacterial products have been associated with liver diseases (ALD). To evaluate the effect of ellagic acid (EA) on the intestinal microbial distribution in an alcoholic liver disease model, the cecal microbiota according to alcohol exposure and EA pretreatment in mice was evaluated according to the experimental design of FIG. 1. […] However, in the case of the alcohol exposure group, Verrucomicrobia phylum increased whereas Firmicutes phylum decreased.

[12] = system: hepatic triglyceride (TG); experiment: hepatic triglyceride (TG) level in alcohol-exposed mice; conditions: EA-pretreated group vs alcohol-exposed group; FIG. 14
Description: as §1
The level of triglyceride (TG) in the liver was measured using a commercially available kit manufactured by Asan Co., Ltd. (Gimpo, South Korea).
as §3

[13] = system: plasma endotoxin; experiment: plasma endotoxin level (LAL chromogenic kit) in alcohol-exposed mice; conditions: EA-pretreated group vs alcohol-exposed group; EA 60 mg/Kg daily oral 14 days; FIG. 7
Description: as §1
Plasma endotoxin levels were measured using a commercial endpoint LAL Chromogenic Endotoxin Quantitation Kit manufactured by Thermo Fisher Scientific (Waltham, Mass.) and having a concentration range of 0.015 to 1.2 EU/mL.
as §4

[14] = EA-pretreated group vs alcohol-exposed group, FIGS. 17 and 19
[15] = EA-pretreated group vs alcohol-exposed mice, FIG. 19
[16] = EA-pretreated group vs alcohol-exposed group, Western blot, FIG. 20
[17] = summary statement, alcohol intake

Question: With `O=c1oc2c(O)c(O)cc3c(=O)oc4c(O)c(O)cc1c4c23` [ellagic acid] as the compound, how does the “activity level of CYP2E1 proteins in the liver” value [1, 14] read?
Answer: Its value is “decreased”.

Question: What about the “expression level of CYP2E1 proteins in the liver” value [1, 14] of the same compound?
Answer: The value was “decreased”.

Question: And the “hepatic 3-NT proteins” value [1, 15]?
Answer: Its value is “decreased”.

Question: And the “hepatic inducible nitric oxide synthase (iNOS) protein” value [1, 15]?
Answer: The value was “decreased”.

Question: And the “level of 3-NT proteins in the intestine” value [2]?
Answer: Its value is “decreased”.

Question: What about the “level of CYP2E1 protein in the intestine” value [2] of the same compound?
Answer: The value was “decreased”.

Question: And the “level of iNOS protein in the intestine” value [2]?
Answer: Its value is “decreased”.

Question: What about the “Bax (apoptosis marker protein) in the liver” value [3, 16] of the same compound?
Answer: Its value is “decreased”.

Question: And the “p-JNK (apoptosis marker protein) in the liver” value [3, 16]?
Answer: Its value is “decreased”.

Question: And the “apoptosis marker proteins by cleaved caspase-3 staining and TUNEL analysis in the liver” value ([3]; EA-pretreated group vs mice exposed to alcohol, FIGS. 21 and 22)?
Answer: The value was “decreased”.

Question: And the “increase in blood alcohol concentration (BAC) caused by alcohol intake” value [4]?
Answer: Its value is “suppressed”.

Question: What about the “alcohol-induced increase in intestinal TNF-α level” value [5] of the same compound?
Answer: Its value is “suppressed”.

Question: And the “level of intestinal ZO-1” value [6]?
Answer: The value was “recovery”.

Question: What about the “level of intestinal β-catenin” value [6] of the same compound?
Answer: The value was “recovery”.

Question: What about the “plasma ALT level” value [7] of the same compound?
Answer: Its value is “decreased”.

Question: And the “increase in the level of plasma ROS attributable to alcohol intake” value [8]?
Answer: The value was “suppressed”.

Question: And the “fat accumulation in the liver” value [9]?
Answer: Its value is “decreased”.

Question: And the “apoptosis of intestinal cells” value [10]?
Answer: Its value is “decrease”.

Question: What about the “gene of the genus Bacteroides” value ([11]; EA-pretreated mice vs alcohol-exposed group, EA 60 mg/Kg daily oral 14 days, alcohol 5 g/Kg three times, FIG. 4) of the same compound?
Answer: The value was “decreased”.

Question: What about the “gene level of E. coli” value ([11]; EA-pretreated mice vs alcohol-exposed group, EA 60 mg/Kg daily oral 14 days, alcohol 5 g/Kg three times, FIG. 5) of the same compound?
Answer: The value was “decreased to a level similar to that of the control group”.

Question: What about the “change in intestinal microbial distribution at the phylum level” value ([11]; control group and EA pretreatment group, EA 60 mg/Kg daily oral 14 days, female C57BL/6J mice, FIGS. 2 and 3) of the same compound?
Answer: Its value is “no significant change”.

Question: What about the “growth of Bacteroidetes (harmful bacteria) attributable to alcohol intake” value [11, 17] of the same compound?
Answer: The value was “inhibits the growth”.

Question: And the “growth of Firmicutes (beneficial bacteria)” value [11, 17]?
Answer: Its value is “increases the growth”.

Question: What about the “growth of Verrucomicrobia (harmful bacteria) attributable to alcohol intake” value [11, 17] of the same compound?
Answer: The value was “inhibits the growth”.

Question: What about the “hepatic triglyceride (TG) level” value [12] of the same compound?
Answer: The value was “decreased”.

Question: And the “alcohol-induced increase in plasma endotoxin concentration” value [13]?
Answer: The value was “suppressed”.
